{"source": "paper PMC10860701", "about": "(ACS Medicinal Chemistry Letters, 2024)", "key": {"THP-1 cells": {"tested_on": "THP-1 cells", "experiment": "Measurement of cellular NAD+ levels in THP-1 cell cultures", "format": "cell-based, human", "conditions": "for ability to raise NAD+ levels compared with parent NP-A3-B2: initial screening, 3 μM, 24 h, data not shown"}, "HT-22 cells [1]": {"tested_on": "HT-22 cells", "experiment": "TNFα-induced ROS", "format": "cell-based, mouse", "conditions": "for effect on TNFα-induced ROS, in words / ROS suppression at 40 μM: 1 μg/mL TNFα; for effect on TNFα-induced ROS, in words: all concentrations tested; for ROS suppression at 40 μM: 40 μM compound, Figure 4A"}, "HT-22 cells [2]": {"tested_on": "HT-22 cells", "experiment": "Glutamate-induced ROS", "format": "cell-based, mouse", "conditions": "75 mM glutamate, 20 μM and 40 μM compound, Figure 4D"}, "NAMPT": {"molecular_target": "NAMPT (Homo sapiens, UniProt P43490)", "sequence (P43490 whole entry)": "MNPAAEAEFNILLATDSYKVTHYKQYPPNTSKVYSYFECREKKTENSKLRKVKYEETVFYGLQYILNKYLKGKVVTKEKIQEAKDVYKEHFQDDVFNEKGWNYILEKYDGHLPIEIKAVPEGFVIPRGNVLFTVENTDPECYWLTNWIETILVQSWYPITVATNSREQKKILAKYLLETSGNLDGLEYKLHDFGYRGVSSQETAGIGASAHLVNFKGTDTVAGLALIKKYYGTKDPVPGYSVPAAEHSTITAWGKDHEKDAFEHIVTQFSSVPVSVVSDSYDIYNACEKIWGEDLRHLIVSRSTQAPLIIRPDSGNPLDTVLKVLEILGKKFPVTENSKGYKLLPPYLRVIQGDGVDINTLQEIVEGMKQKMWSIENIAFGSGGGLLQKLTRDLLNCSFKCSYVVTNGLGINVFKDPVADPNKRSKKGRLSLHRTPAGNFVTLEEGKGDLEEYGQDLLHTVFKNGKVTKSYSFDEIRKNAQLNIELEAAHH", "experiment": "NAMPT coupled enzyme activity assay", "format": "biochemical"}}, "note": "Entries after “also recorded” stand apart in the source; their conditions may differ.", "data": [{"molecule": "CC(C)C1(CCN(Cc2ccc3[nH]ccc3c2)C(=O)c2ccco2)CCOC(C)(C)C1", "note": "(stereo not shown) [JGB-1-134]", "values": [{"measurement": "ability to raise NAD+ levels compared with parent NP-A3-B2", "setting": "THP-1 cells", "value": "significantly greater ability to raise NAD^+ levels"}, {"measurement": "effect on TNFα-induced ROS, in words", "setting": "HT-22 cells [1]", "value": "did not inhibit ROS generation"}]}, {"molecule": "O=C(NCc1ccncc1)Nc1ccc(S(=O)(=O)N2CC3CCC(C2)O3)cc1", "note": "[SBI-797812, reference compound]", "values": [{"measurement": "effect on TNFα-induced ROS, in words", "setting": "HT-22 cells [1]", "value": "no significant effect on ROS"}]}, {"molecule": "COc1ccc(CN(CCC2(C(C)C)CCOC(C)(C)C2)C(=O)c2cccs2)cc1", "note": "(stereo not shown) [JGB-1-137]", "values": [{"measurement": "ROS suppression at 40 μM", "setting": "HT-22 cells [1]", "value": "significantly suppressed ROS"}]}, {"molecule": "COc1ccc(CN(CCC2(C(C)C)CCOC(C)(C)C2)C(=O)c2ccsc2)cc1", "note": "(stereo not shown) [JGB-1-127]", "values": [{"measurement": "effect on TNFα-induced ROS, in words", "setting": "HT-22 cells [1]", "value": "did not inhibit ROS generation"}]}, {"molecule": "CC(C)C1(CCN(Cc2ccc(N(C)C)cc2)C(=O)c2ccco2)CCOC(C)(C)C1", "note": "(stereo not shown) [JGB-1-155]", "values": [{"measurement": "concentration response for FK866 in the presence of compound", "setting": "THP-1 cells; THP-1 NAD+, Figure 3B", "value": "right-shifted"}, {"measurement": "potency in THP-1 cell cultures relative to NP-A3-B2", "setting": "THP-1 cells; full concentration-response, NAD+", "value": "improved potency"}, {"measurement": "ability to raise NAD+ levels compared with parent NP-A3-B2", "setting": "THP-1 cells", "value": "significantly greater ability to raise NAD^+ levels"}, {"measurement": "ROS levels under glutamate insult", "setting": "HT-22 cells [2]", "value": "decreased ROS levels below that of the vehicle-treated control"}, {"measurement": "ROS suppression at 40 μM", "setting": "HT-22 cells [1]", "value": "significantly suppressed ROS"}, {"measurement": "reduction of TNFα-induced ROS, confirmation assay", "setting": "HT-22 cells [1]; 20 μM and 40 μM compound, Figure 4B", "value": "significant reduction"}]}, {"molecule": "COc1ccc(CN(CCC2(C(C)C)CCOC(C)(C)C2)C(=O)c2ccco2)cc1", "note": "(stereo not shown) [NP-A3-B2]", "values": [{"measurement": "ROS suppression at 40 μM", "setting": "HT-22 cells [1]", "value": "significantly suppressed ROS"}]}, {"molecule": "COc1ccc(CN(CCC2(C(C)C)CCOC(C)(C)C2)C(=O)c2cnc[nH]2)cc1", "note": "(stereo not shown) [JGB-1-147]", "values": [{"measurement": "NAMPT enzyme activity, in words", "setting": "NAMPT", "value": "inhibitory activity; also recorded: inhibits NAMPT"}]}]}
